US8609723B2 (Beijing Dingguochangsheng Biotech., Co., Ltd., priority 2008, dated 2013)

Experiments:
male ICR mice [1] = assay: Forced swimming test of mice; type: in vivo; details: curcumin 10 mg/kg, Days 3 and 7 after administration
Protocol: The mice were forced to swim on Days 3, 7 and 14 after administration, except that such experiment was not performed for the curcumin group on Day 14.
Twenty four hours before the formal test, the mice were placed into a round glass container (height: 25 cm, diameter: 10 cm) filled with water (depth: 10 cm) with a temperature of 24±1° C., and forced to conduct swim training for 15 min. Twenty four hours later, the mice were placed into the round glass container filled with water (depth: 10 cm) again and forced to swim for 6 min. The accumulative immobile time within the last 4 min was observed and recorded for each mouse. The immobile time is intended to mean the period within which the mouse stops to struggle, floats in the water and keeps immobile, or only makes a few slight movements that are necessary to keep its head floating on the surface of water.

[2] = tested on: 5-HT, NA, DA and metabolites thereof in hippocampus; assay: Detection of monoamine and metabolites thereof in brains of mice; type: in vivo; details: 10 mg/kg
Protocol: Hippocampus was collected immediately on ice, weighed, put into an Eppendorf tube and kept in refrigeratory at −80° C. To each 100 mg brain tissue, 200 μl ice-cooled Solution A (0.4 mol/L HCLO4) was added. The mixture was homogenized ultrasonically in a ice bath, kept in dark at 4° C. for 60 min, and centrifuged for 20 min (12,000 rpm, 4° C.). […] The mixture was vortexed thoroughly for 10 min, kept at 4° C. in dark for 60 min, and centrifuged again for 20 min (12,000 rpm, 4° C.). The supernatant was collected and measured for the content of monoamine. The contents of 5-HT, NA, DA, 5-HIAA and DOPAC in brain tissue were determined by High Effective Liquid Phase Electrochemistry. […] The contents of monoamine and metabolites thereof in brain tissue were shown as ng/g wet tissue weight.

[3] = background statement; cited from earlier work
male ICR mice [4] = assay: Tail suspension test in mice; type: in vivo; details: curcumin 10 mg/kg, Days 3 and 7 after administration, vs control group
Protocol: The tail suspension test was carried out for each of these groups on Days 3, 7 and 14 after administration, except that such experiment was not performed for the curcumin group on Day 14. Tails of the mice were taped on a special iron stand at 1 cm from the tips, whilst keeping the mice staying at a height of 50 cm from ground. Performance of the mice was observed within 6 min, and the accumulative immobile time within the last 4 min was recoded for each mouse.

S-180 cells = assay: Effect on apoptosis of tumor cells, cell cycle by flow cytometry; type: in vivo, mice; details: sarcoma cell cycle, S-180 tumor fluid, 7 days
Description: During the experiment, the mice were inoculated with S-180 cells (×10^7) in armpits. Seven days later, the mice were sacrificed by decollation and the tumors were removed. Tumor fluid was collected from tumors, and used for determining cell cycle by flow cytometry after ethanol fixation.

HCT116 cells = assay: Antitumor experiment of tumor HCT116-bearing mice; type: in vivo; details: 5-FU administered daily, 7 days
Description: During the experiment, the mice were inoculated with HCT116 cells (×10^7) in armpits. […] Seven days later, the mice were sacrificed by decollation. The tumors were removed, and the mice and the tumors were weighed separately.

S-180 sarcoma cells = assay: Antitumor experiment of tumor S-180-bearing mice; type: in vivo; details: 5-FU administered daily, 7 days
Description: During the experiment, the mice were inoculated with S-180 sarcoma cells (×10^7) in armpits. […] Seven days later, the mice were sacrificed by decollation. The tumors were removed, and the mice and the tumors were weighed separately.

[5] = tested on: chronically stressed rats; assay: Measurement of body temperature of chronically stressed rats; type: in vivo; details: imipramine 10 mg/kg intraperitoneally daily for 21 days, chronic stress
Description: (§1) The rats in the normal control group were raised normally under a condition without any stimulation except for weighing body weight, measuring body temperature, and subjected to sugar test. All of other groups were subjected to stimulations of same type and same strength. During the experiment, different types of stimulations were applied in an unpredictable manner, and the same type of stimulation was enhanced each time.
(§2) The stress protocol was shown as follows: horizontally shaking at a high speed for 45 min; nipping tails (1 cm from the tail root): 1 min; depriving of water for 24 h; forbidding moving for 1.5 h; fasting for 24 h; stimulating with ice water (water temperature: 10° C.) for 5 min; electric shocking (1 mA, time course: is, 1 shock/min) the bottoms of feet for 30 min; changing cages and raising separately for 24 h; forbidding moving for 2 h; nipping tails (1 cm from the root of tail) for 1 min; depriving of water for 24 h; horizontally shaking at a high speed for 1.5 h; fasting for 24 h; nipping tails (1 cm from the tail root): 1 min; electric shocking (1 mA, time course: 1 s, 1 shock/min) the bottoms of feet for 40 min; stimulating with ice water for 5 min; changing cages and raising separately for 24 h; horizontally shaking at a high speed for 60 min; electric shocking (1 mA, time course: 1 s, 1 shock/min) the bottoms of feet for 50 min; depriving of water for 24 h; forbidding moving for 2.5 h; and 24 h social isolation.
The front part of a digital thermometer was coated with liquid paraffin, and then inserted into the anus of a rat with a depth of approximately 1 cm. The temperature was read twice accordingly and averaged.

[6] = tested on: chronically stressed rats; assay: Forced swimming test of rats (chronic stress model); type: in vivo; details: imipramine 10 mg/kg intraperitoneally daily for 21 days
Description: as §1
as §2, with “The chronic stress course was 20 days in total, once per day, from 9:00 AM to 2:00 PM. The” for “The”
Please see FIG. 7. 24 hours before the formal test, rats were placed into a round glass container (height: 40 cm, diameter: 18 cm) filled with water (depth: 23 cm) with a temperature of 24±1° C., and forced to conduct swim training for 15 min. […] The accumulative immobile time within the last 4 min was observed and recorded for each rat. The immobile time is intended to mean the period within which the rat stops to struggle, floats in the water and keeps immobile, or only makes a few slight movements that are necessary to keep its head floating on the surface of water.

[7] = tested on: chronically stressed rats; assay: Sugar water test of rats (chronic stress model); type: in vivo; details: imipramine 10 mg/kg, table title says (%), the values are: sugar water preference
Description: as §1
as §2, with “The chronic stress course was 20 days in total, once per day, from 9:00 AM to 2:00 PM. The” for “The”
Before this experiment, animals were trained to adapt to drink sugar water in a to quite room. Two bottles were placed simultaneously into each cage. For the first 24 h, these two bottles were both filled with 1% sugar water; and for the next 24 h, one of them was filled with 1% sugar water and the other was filled with pure water. Then after 23-hour water deprivation, the animals were tested for basic sugar water/pure water consumption. One bottle of 1% sugar water and one bottle of pure water were provided to each rat simultaneously. One hour later, the two bottles were weighed, and the total liquid consumption, sugar water consumption, pure water consumption, and the sugar water preference=sugar water consumption/total liquid consumption×100% were calculated, respectively. The experiment was performed after continuous administration of curcumin for 14 days.

serum corticosterone = assay: Determination of the content of serum corticosterone (chronic stress model); type: in vivo; details: stressed rats, imipramine 10 mg/kg daily, day after 21-day stress
Description: as §1
as §2, with “The chronic stress course was 20 days in total, once per day, from 9:00 AM to 2:00 PM. The” for “The”
In this experiment, the content of serum corticosterone was measured by a competitive method, with its mechanism shown as follow: antigens in samples and enzyme-labeled antigens compete to bind antibodies in a solid phase. The more antigens exist in samples, the less enzyme-labeled antigens bind to the solid phase, thereby resulting in a fainter coloration.
On the next day after the end of the 21-day stress period, rats were sacrificed by decollation, and 5˜10 ml whole blood was collected. A portion of the collected whole blood was kept at room temperature for 20 min, followed by centrifugation at 1000 rpm for 10 min. Serum was then separated and stored at −80° C. The serum corticosterone detection kit was used for such detection.

[8] = first line of group (Day 3 presumed)
[9] = second line of group (Day 7 presumed)

COc1cc(/C=C/C(=O)CC(=O)/C=C/c2ccc(O)c(OC)c2)ccc1O [Curcumin, curcumin, reference compound]
reduction of accumulative immobile time in the forced swimming test (male ICR mice [1]): did not significantly reduce
Hippocampus 5-HIAA [2, 8]: 175.7 ± 13.8 ng/g
Hippocampus 5-HIAA/5-HT [2, 8]: 0.32 ± 0.03
Hippocampus 5-HT [2, 8]: 541.2 ± 31.8 ng/g
Hippocampus DOPAC [2, 8]: 12.4 ± 1.2 ng/g
Hippocampus Dopamine [2, 8]: 19.1 ± 3.6 ng/g
Hippocampus Noradrenaline [2, 8]: 245.6 ± 12.2 ng/g
Hippocampus 5-HIAA [2, 9]: 179.2 ± 14.9 ng/g
Hippocampus 5-HIAA/5-HT [2, 9]: 0.33 ± 0.03
Hippocampus 5-HT [2, 9]: 534.6 ± 28.9 ng/g
Hippocampus DOPAC [2, 9]: 11.9 ± 1.8 ng/g
Hippocampus Dopamine [2, 9]: 18.8 ± 5.4 ng/g
Hippocampus Noradrenaline [2, 9]: 246.6 ± 11.2 ng/g
half life [3]: approximately 1 hour
reduction of tail suspension accumulative immobile time (male ICR mice [4]): no significant difference

O=c1[nH]cc(F)c(=O)[nH]1 [Example 5-FU, 5-FU, reference compound]
APO % (apoptosis level of tumor cells) (S-180 cells): 29.1%
G1 % (S-180 cells): 35.1%
G2 % (S-180 cells): 11.7%
S % (S-180 cells): 53.2%
inhibitory rate of tumors (HCT116 cells): 52.8%
inhibitory rate of tumors (S-180 sarcoma cells): 55.8%

CN(C)CCCN1c2ccccc2CCc2ccccc21 [Imipramine, imipramine, reference compound]
Body temperature after stress [5]: 36.34 ± 0.083 °C
reduced the accumulative immobile time of the forced swimming test [6]: 40.5%
Sugar water volume after stress [7]: 67.5 ± 5%
Sugar water volume before stress [7]: 74.8 ± 7.8%
serum corticosterone (serum corticosterone): 137.0 ± 15.3 nmol/L
